# Test results published in US20240139148A1, “COMPOSITIONS AND METHODS FOR TREATING NON-TUBERCULOUS MYCOBACTERIAL INFECTIONS” (priority 2021, published 2024).
# Like-named read-outs stand apart in the source and are kept apart here.
# Tests used:
# [1] = test system: MabsΔdosRS complemented with dosRS; type: cell-based, M. abscessus subsp. abscessus; conditions: for tolerance to antibiotics under hypoxia: dosRS complemented mutant, 7 d treatment, AMK 64, AZI 32, CFZ 2, IMI 32 mg L^−1; for decrease in viability compared to DMSO-treated controls: dosRS complemented strain, 40 μM, 7 d of hypoxia
# WT Mabs ATCC 19977 [2] = type: cell-based, M. abscessus subsp. abscessus; conditions: for tolerance to antibiotics under hypoxia: 7 d treatment, AMK 64, AZI 32, CFZ 2, IMI 32 mg L^−1; for decrease in viability compared to DMSO-treated controls: WT strain, 40 μM, 7 d of hypoxia; for tolerance of DosS inhibitor-treated cells to AZI: AZI for 7 d under hypoxia; for tolerance of DosS inhibitor-treated cells to CFZ: CFZ for 7 d under hypoxia
# MabsΔdosRS [3] = type: cell-based, M. abscessus subsp. abscessus; conditions: for decrease in survival compared to the DMSO-treated mutant control: 7 d under hypoxia, AMK 64 mg L^−1, AZI 32 mg L^−1, CFZ 2 mg L^−1; for susceptibility of the dosRS mutant to AMI or AZI after DosS inhibitor treatment: 40 μM DosS inhibitor, AMI 64 mg L^−1, AZI 32 mg L^−1, 7 d hypoxia; for decrease in viability compared to DMSO control: 40 μM, 7 d of hypoxia
# Mabs ATCC 19977 = assay: MIC determination (resazurin blue test); type: cell-based, M. abscessus subsp. abscessus; conditions: Mycobacteroides abscessus, ATCC19977, 120 h, read-out: Minimum Inhibitory Concentrations (MICs)
# MabsΔdosRS [4] = assay: RNA-seq transcriptional profiling under microaerophilic conditions, dosRS KO mutant; conditions: 20 μM
# Mabs ATCC 19977 biofilms = assay: Biofilm dispersal assay on established 4-d old biofilms; type: cell-based, M. abscessus subsp. abscessus; conditions: 24 h in PBS
# WT Mabs ATCC 19977 [5] = assay: Biofilm formation assay in SCFM (crystal violet staining); type: cell-based, M. abscessus subsp. abscessus; conditions: Mycobacteroides abscessus, ATCC19977, 120 h, read-out: IC50 values (required to inhibit 50% of biofilm formation)
# [6] = test system: NO-signaling (dosR induction); assay: NO signaling: RT-qPCR of dosR after Spermine NONOate; type: cell-based, M. abscessus subsp. abscessus; conditions: 50 μM inhibitor for 1 h, then Spermine NONOate 50 μM for 40 min
# Experimental: FIG. 18: Effect of DosS inhibitors on NO signaling. Mabs ATCC 19977 was grown to OD ˜0.3 in 7H9-ADC-Tween 80, treated for 1 h with either DMSO (control) or 50 μM of DosS inhibitors, followed by addition of Spermine NONOate (50 μM final concentration). […] Ratios of dosR/sigA mRNA are means±SD (n=3 RNA extractions and RT-qPCR reactions).
# Since the DosRS pathway of MABSC has been reported to be induced by NO, RT-qPCR was used to determine whether ART, OZ439, and MSU-39446 inhibited the induction of DosR-regulated genes in WT Mabs ATCC 19977 following treatment with spermine/nitric oxide (Spermine/NO) for 40 min.
# [7] = biological target: Mabs ATCC 19977 DosS (MAB_3890c) (Mycobacteroides abscessus, UniProt B1MH83); assay: UV-visible spectroscopy assay of DosS heme redox status; type: biochemical, M. abscessus subsp. abscessus; conditions: 100 μM; DTN-reduced DosS (427 nm); at time 0
# Text: FIG. 7: Inhibition of the sensor kinase heme of DosS by ART, OZ439 and MSU-39446. UV-visible spectra of DosS showing treatment with dithionite (DTN) reduces the heme, which is the “on” state for the kinase. ART, OZ439 and MSU-39446, but not the degassed DMSO control, oxidize the heme.
# UV-visible spectroscopy assay and mass spectrometry. A recombinant form of Mabs ATCC 19977 DosS (MAB_3890c) was produced in E. coli BL21(DE3) using the pET14b expression system (Novagen, Madison, WI) and pGro7, and purified essentially as described. Briefly, His-DosS expression was induced by isopropyl-thio-β-D-galactopyranoside (IPTG, 0.5 mM) at 16° C. for 20 h. The cell pellet was suspended in lysis buffer (50 mM sodium phosphate (pH 7.6), 10% glycerol, 200 mM sodium chloride, 1% Triton X-100, 0.5 mg mL^−1 lysozyme, 0.1 mg mL^−1 PMSF) and the cell suspension was incubated with shaking at 37° C. for 30 min prior to lysis using a French press (1400-1800 PSI). The soluble extract was applied to a Co^2+ column (Clontech) and washed with washing buffers (with or without 20 mM imidazole in 50 mM sodium phosphate (pH 7.6), 10% glycerol and 500 mM sodium chloride). […] The absorption spectrum of Mabs DosS ([…]) was analyzed as previously described. […] The UV-visible spectra were recorded for kinetic changes over 2 h using a UV-1800 spectrophotometer (Shimadzu). […]
# WT Mabs ATCC 19977 [8] = assay: Acute SCID mouse model of MABSC infection; conditions: SCID mice
# in vivo = conditions: SCID, mouse, po, 50 mg/kg
# Experimental: (A) Exposure of OZ439 in Mabs ATCC 19977-infected SCID mice. In the acute model, mice received OZ439 orally (200 mg/kg) every other d for 14 d. In the chronic model, mice received OZ439 orally (50 mg/kg) every other d for 28 d. Shown are the averages (±SD) of lung and plasma concentrations 2 and 48 hs after the last dosing. Two mice were used per time point in the acute model. Four mice were used per time point in the chronic model.
# (A) Exposure of OZ277 in Mabs ATCC 19977-infected SCID mice. Mice received OZ277 orally (200 mg/kg) daily for 14 days. Shown are the averages (±SD) of lung and plasma concentrations 2 and 24 hours after the last dosing. Two mice were used per time point.
# Four to eight Mabs ATCC 19977-infected SCID mice (2 to 4 mice per time point) having received OZ277 and OZ439 as stand-alone drugs by gavage were ethically euthanized on the last day of the experiment for comparison of drug concentrations in the plasma and lung tissues 2 and 24 h (OZ277) or 2 and 48 h (OZ439) after the last dose. For quantitation of OZ277 and OZ439 by HPLC coupled to tandem mass spectrometry (LC-MS/MS), 1 mg mL^−1 DMSO stock solutions of OZ277 and OZ439 were serially diluted in 50/50 acetonitrile/water to create standard curves and quality control spiking solutions. […] Lung tissues were weighed and homogenized in 19 volumes of PBS containing 1% formic acid to 1 part tissue that was pre-chilled. […]
# WT Mabs ATCC 19977 [9] = assay: Chronic SCID mouse model of MABSC infection; conditions: SCID mice; 50 mg/kg gavage every other day for 28 d
# [10] = in SCFM and cation-adjusted Mueller-Hinton II media, 5 d at 37° C., higher concentrations not tested due to solubility
# [11] = 5 d of growth in SCFM, poly-D-lysine-coated plates
# [12] = 200 mg/kg gavage for 14 days (OZ439 every other day)
# Experimental for THP-1 cells: FIG. 21: THP-1 cells were plated at 1×10^6 cells per ml in 24-well plates and treated for 24 hrs. with 10 ng/ml PMA for differentiating to macrophages. PMA medium was removed, and cells were cultured for an additional 24 hrs. Cells were then treated with either nothing, 300 ng/ml LPS or either Mabs ATCC19977 (smooth) or Mabs ATCC19977 (rough)(aka CipR) at an MOI of 5. After 9 h, the medium was removed and replaced with medium containing either nothing or 6 μM of OZ439 in triplicate wells and THP-1 cells were cultured for an additional 30 hr. Supernatants were harvested and assayed for NO production by the Griess Assay. Half the cells were stained with H2DCFDA for ROS analysis and half were stained for macrophage activation markers and analyzed by flow cytometry. Statistical differences between treatment groups were determined by one way ANOVA with Dunnett's multiple comparison test (*=p<0.05; ***=p<0.001; ****=p<0.0001).
# THP-1 cells were plated at 1×10^6 cells per ml in 24-well plates and treated for 24 hrs. with 10 ng/ml PMA for differentiating to macrophages. PMA medium was removed, and cells were cultured for an additional 24 hrs. Cells were then treated with either nothing, 300 ng/ml LPS or either Mabs ATCC19977 (smooth) or Mabs ATCC19977 (rough) (aka CipR) at an MOI of 5. After 9 h, the medium was removed and replaced with medium containing either nothing or 6 μM of OZ439 in triplicate wells and THP-1 cells were cultured for an additional 30 hr. Supernatants were harvested and assayed for NO production by the Griess Assay. Half the cells were stained with H2DCFDA for ROS analysis and half were stained for macrophage activation markers and analyzed by flow cytometry. Statistical differences between treatment groups were determined by one way ANOVA with Dunnett's multiple comparison test (*=p<0.05; ***=p<0.001; ****=p<0.0001).
# Chain of Mabs ATCC 19977 DosS (MAB_3890c) (B1MH83 entry or part of it): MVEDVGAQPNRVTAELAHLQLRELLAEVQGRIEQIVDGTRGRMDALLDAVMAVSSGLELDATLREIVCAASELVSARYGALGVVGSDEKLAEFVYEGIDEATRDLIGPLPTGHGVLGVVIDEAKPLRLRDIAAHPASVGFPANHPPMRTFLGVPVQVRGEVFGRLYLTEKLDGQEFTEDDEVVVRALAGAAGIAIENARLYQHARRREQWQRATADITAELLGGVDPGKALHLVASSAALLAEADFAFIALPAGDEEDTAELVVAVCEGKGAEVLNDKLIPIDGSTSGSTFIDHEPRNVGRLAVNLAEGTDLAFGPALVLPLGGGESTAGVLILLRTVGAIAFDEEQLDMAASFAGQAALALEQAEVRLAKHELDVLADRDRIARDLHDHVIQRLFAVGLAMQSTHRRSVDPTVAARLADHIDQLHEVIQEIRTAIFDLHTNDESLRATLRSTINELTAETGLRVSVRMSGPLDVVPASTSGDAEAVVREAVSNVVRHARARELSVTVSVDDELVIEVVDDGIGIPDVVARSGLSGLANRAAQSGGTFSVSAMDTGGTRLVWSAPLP
compound,measurement,setting,value
"CC[C@H]1OC(=O)[C@H](C)[C@@H](O[C@H]2C[C@@](C)(OC)[C@@H](O)[C@H](C)O2)[C@H](C)[C@@H](O[C@@H]2O[C@H](C)C[C@H](N(C)C)[C@H]2O)[C@](C)(O)C[C@@H](C)CN(C)[C@H](C)[C@@H](O)[C@]1(C)O [AZI, azithromycin]",tolerance to antibiotics under hypoxia,[1],fully tolerant to all antibiotics
same,tolerance to antibiotics under hypoxia,WT Mabs ATCC 19977 [2]; WT,fully tolerant to all antibiotics
same,decrease in survival compared to the DMSO-treated mutant control,MabsΔdosRS [3],64%
"C[C@@H]1CC[C@H]2[C@@H](C)C(=O)O[C@@H]3O[C@@]4(C)CC[C@@H]1[C@]32OO4 [ART, artemisinin]",MIC,Mabs ATCC 19977; [10],> 400 µM
same,decrease in viability compared to DMSO-treated controls,[1],0.64 log10 CFU
same,number of downregulated genes in the treated mutant,MabsΔdosRS [4],22
same,dispersal of established biofilms,Mabs ATCC 19977 biofilms,none of the compounds dispersed the biofilms
same,IC50,WT Mabs ATCC 19977 [5]; [11],800 to 1600 nM
same,inhibition of NO-signaling (dosR induction),[6],none of the inhibitors tested inhibited NO-signaling
same,decrease in viability compared to DMSO-treated controls,WT Mabs ATCC 19977 [2],1.12 log10 CFU
same,tolerance of DosS inhibitor-treated cells to AMK,"WT Mabs ATCC 19977 [2]; WT, 40 μM DosS inhibitor, AMK for 7 d under hypoxia",decrease in the tolerance
same,tolerance of DosS inhibitor-treated cells to AZI,"WT Mabs ATCC 19977 [2]; WT, 40 μM DosS inhibitor",decrease in the tolerance
same,tolerance of DosS inhibitor-treated cells to CFZ,"WT Mabs ATCC 19977 [2]; WT, 40 μM DosS inhibitor",unaffected
same,susceptibility of the dosRS mutant to AMI or AZI after DosS inhibitor treatment,MabsΔdosRS [3],did not significantly enhance the susceptibility
same,decrease in viability compared to DMSO control,MabsΔdosRS [3],did not exhibit any significant decrease in viability
same,DosS Soret peak position,[7],421 nm
"CC(C)/N=c1\cc2n(-c3ccc(Cl)cc3)c3ccccc3nc-2cc1Nc1ccc(Cl)cc1 [CFZ, clofazimine]",tolerance to antibiotics under hypoxia,[1],fully tolerant to all antibiotics
same,tolerance to antibiotics under hypoxia,WT Mabs ATCC 19977 [2]; WT,fully tolerant to all antibiotics
same,decrease in survival compared to the DMSO-treated mutant control,MabsΔdosRS [3],52%
"CC(C)(N)CNC(=O)C[C@H]1CC[C@]2(CC1)OO[C@]1(O2)C2CC3CC(C2)CC1C3 [OZ277, arterolane]",MIC,Mabs ATCC 19977; [10],> 400 µM
same,dispersal of established biofilms,Mabs ATCC 19977 biofilms,none of the compounds dispersed the biofilms
same,"bacterial burdens in lungs and liver, compound by itself",WT Mabs ATCC 19977 [8]; [12],significantly reduced bacterial burdens
same,"bacterial burdens in spleen, compound by itself",WT Mabs ATCC 19977 [8]; [12],significantly reduced bacterial burdens
same,"adjunct efficacy in combination with antibiotics (AMK, AZI, IMI, CFZ)","WT Mabs ATCC 19977 [8]; 200 mg/kg gavage, vs antibiotics alone",No statistically significant differences
same,IC50,WT Mabs ATCC 19977 [5]; [11],800 to 1600 nM
"C[C@H]1[C@H](OC(=O)CCC(=O)O)O[C@@H]2O[C@@]3(C)CC[C@H]4[C@H](C)CC[C@@H]1[C@@]24OO3 [AS, artesunate]",MIC,Mabs ATCC 19977,> 400 µM
same,dispersal of established biofilms,Mabs ATCC 19977 biofilms,none of the compounds dispersed the biofilms
same,IC50,WT Mabs ATCC 19977 [5],800 to 1600 nM
"NCC[C@H](O)C(=O)N[C@@H]1C[C@H](N)[C@@H](O[C@H]2O[C@H](CN)[C@@H](O)[C@H](O)[C@H]2O)[C@H](O)[C@H]1O[C@H]1O[C@H](CO)[C@@H](O)[C@H](N)[C@H]1O [AMK, amikacin]",tolerance to antibiotics under hypoxia,[1],fully tolerant to all antibiotics
same,tolerance to antibiotics under hypoxia,WT Mabs ATCC 19977 [2]; WT,fully tolerant to all antibiotics
same,decrease in survival compared to the DMSO-treated mutant control,MabsΔdosRS [3],15%
"c1cc([C@H]2CC[C@]3(CC2)OO[C@]2(O3)C3CC4CC(C3)CC2C4)ccc1OCCN1CCOCC1 [OZ439, artefenomel]",MIC,Mabs ATCC 19977; [10],400 µM
same,decrease in viability compared to DMSO-treated controls,[1],0.72 log10 CFU
same,number of downregulated genes in the treated mutant,MabsΔdosRS [4],10
same,concentration at 2 h,in vivo,~6.2 µM
same,concentration at 48 h,in vivo,~3.9 µM
same,dispersal of established biofilms,Mabs ATCC 19977 biofilms,none of the compounds dispersed the biofilms
same,reduction in bacterial load in the lung,WT Mabs ATCC 19977 [8]; 200 mg/kg gavage every other day for 14 d,~1.8 log10
same,"bacterial burdens in lungs and liver, compound by itself",WT Mabs ATCC 19977 [8]; [12],significantly reduced bacterial burdens
same,IC50,WT Mabs ATCC 19977 [5]; [11],800 to 1600 nM
same,inhibition of NO-signaling (dosR induction),[6],none of the inhibitors tested inhibited NO-signaling
same,decrease in viability compared to DMSO-treated controls,WT Mabs ATCC 19977 [2],1.18 log10 CFU
same,tolerance of DosS inhibitor-treated cells to AZI,"WT Mabs ATCC 19977 [2]; WT, 40 μM DosS inhibitor",decrease in the tolerance
same,tolerance of DosS inhibitor-treated cells to CFZ,"WT Mabs ATCC 19977 [2]; WT, 40 μM DosS inhibitor",unaffected
same,"efficacy by itself (bacterial loads in lungs, liver and spleen)",WT Mabs ATCC 19977 [9],comparable to that of all four antibiotics
same,susceptibility of the dosRS mutant to AMI or AZI after DosS inhibitor treatment,MabsΔdosRS [3],did not significantly enhance the susceptibility
same,decrease in viability compared to DMSO control,MabsΔdosRS [3],did not exhibit any significant decrease in viability
same,expression of macrophage activation markers,"THP-1 cells; 6 μM OZ439 alone, non-infected",increased expression of some macrophage activation markers (MHC class II and CD80)
same,NO production (Griess Assay),"THP-1 cells; 6 μM, THP-1 infected with Mabs ATCC19977 smooth strain, 30 hr",reverted this activation
same,"expression of macrophage activation markers (MHC class II, CD80, CD86, CD40)","THP-1 cells; 6 μM, THP-1 infected with Mabs, vs not treated",significant increases in all macrophage activation markers
same,ROS (H2DCFDA),"THP-1 cells; 6 μM, absence of Mabs infection",upregulated
same,ROS production (H2DCFDA),"THP-1 cells; 6 μM, cultures infected with Mabs (rough or smooth)",decreased
